Laboratory results reported in patent US7501430B2 (ArQule, Inc., priority 2006, dated 2009).
pIC50: −log10 of the molar value.

Target: T1, mutant B-RAF (Homo sapiens, UniProt P15056, V600E)
T1 construct: purchased Upstate (Charlottesville, Va.)
Assay: RAF biochemical assay (MEK-1 phosphorylation, anti-phospho MEK1/2 detection)
Conditions: for pIC50: read-out: Mutant B-RAF IC50; for inhibition at 10 µM: read-out: Mutant B-RAF % inhibition
Outline: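 Detection is by ELISA: after a 30 min room-temperature reaction, plate-captured GST-MEK-1 is probed with anti-phospho MEK1/2, then an AP-tagged secondary antibody with fluorescent Attophos read-out.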

T1 sequence (P15056 whole entry V600E): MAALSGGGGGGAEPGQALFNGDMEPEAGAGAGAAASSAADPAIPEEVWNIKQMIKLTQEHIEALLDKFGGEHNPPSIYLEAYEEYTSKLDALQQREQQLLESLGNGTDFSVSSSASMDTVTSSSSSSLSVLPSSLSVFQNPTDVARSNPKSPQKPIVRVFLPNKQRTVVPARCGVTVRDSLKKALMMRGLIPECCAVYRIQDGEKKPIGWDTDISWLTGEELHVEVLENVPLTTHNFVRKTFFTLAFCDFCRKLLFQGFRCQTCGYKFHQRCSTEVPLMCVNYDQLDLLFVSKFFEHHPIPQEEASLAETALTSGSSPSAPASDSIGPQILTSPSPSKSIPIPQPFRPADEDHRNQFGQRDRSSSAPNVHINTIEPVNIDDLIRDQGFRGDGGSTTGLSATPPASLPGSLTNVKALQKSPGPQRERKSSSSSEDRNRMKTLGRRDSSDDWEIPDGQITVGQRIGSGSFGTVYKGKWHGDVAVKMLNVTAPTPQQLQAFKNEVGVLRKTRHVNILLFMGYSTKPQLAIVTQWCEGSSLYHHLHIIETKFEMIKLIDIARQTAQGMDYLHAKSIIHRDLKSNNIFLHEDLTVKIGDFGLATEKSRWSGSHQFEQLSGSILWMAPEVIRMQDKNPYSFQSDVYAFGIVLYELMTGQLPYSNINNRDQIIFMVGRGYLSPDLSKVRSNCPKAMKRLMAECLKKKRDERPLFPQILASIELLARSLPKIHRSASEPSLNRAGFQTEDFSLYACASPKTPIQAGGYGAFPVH

Structure (SMILES)	pIC50	inhibition at 10 µM
CN(C)c1ccc(NC(=O)N2CCC(Nc3nccc(-c4c(-c5ccc([N+](=O)[O-])cc5)nc5sccn45)n3)CC2)cc1 [Example 253, N-[4-(dimethylamino)phenyl]-4-({4-[6-(4-nitrophenyl)imidazo[2,1-b][1,3]thiazol-5-yl]pyrimid-in-2-yl}amino)piperidine-1-carboxamide]	< 5.52	–
CS(=O)(=O)N1CCC(Nc2nccc(-c3c(-c4cccc(C(F)(F)F)c4)nc4occn34)n2)CC1 [Example 309, N-[1-(methylsulfonyl)piperidin-4-yl]-4-{6-(3-(trifluoromethyl)phenyl]imidazo[2,b][1,3]oxazol-5-yl)pyrimidin-2-amine]	–	33%
O=C(NC1CCCCC1)N1CCC(Nc2nccc(-c3c(-c4ccc(F)cc4)nc4occn34)n2)CC1 [Example 167, N-cyclohexyl-4-({4-[6-(4-fluorophenyl)imidazo[2,1-b][1,3]oxazol-5-yl]pyrimidin-2-yl}amino)piperidine-1-carboxamide]	5.33	–
O=C(Nc1ccc(F)cc1)N1CCC(Nc2nccc(-c3c(-c4ccc(F)cc4)nc4occn34)n2)CC1 [Example 174, N-(4-fluorophenyl)-4-({4-[6-(4-fluorophenyl)imidazo[2,1-b][1,3]oxazol-5-yl]pyrimidin-2-yl}amino)piperidine-1-carboxamide]	5.33	–
O=C(Cc1ccc(F)cc1)N1CCC(Nc2nccc(-c3c(-c4ccc(F)cc4)nc4occn34)n2)CC1 [Example 179, N-{1-[(4-fluorophenyl)acetyl]piperidin-4-yl}-4-[6-(4-fluorophenyl)imidazo[2,1-b][1,3]oxazol-5-yl]pyrimidin-2-amine]	–	29%
N#Cc1cccc(-c2nc3sccn3c2-c2ccnc(N[C@@H]3CCNC3)n2)c1 [Example 284, 3-(5-{2-[(3R)-pyrrolidin-3-ylamino]pyrimidin-4-yl}imidazo[2,1-b][1,3]thiazol-6-yl)benzonitrile]	–	61%
COc1cccc(-c2nc3sccn3c2-c2ccnc(N[C@@H]3CCCN(C(=O)Nc4ccc(F)cc4)C3)n2)c1 [Example 327, (3R)-N-(4-fluorophenyl)-3-({4-[6-(3-methoxyphenyl)imidazo[2,1-b][1,3]thiazol-5-yl]pyrimidin-2-yl}amino)piperidine-1-carboxamide]	5.40	–
c1cc(-c2c(-c3ccc4c(c3)OCCO4)nc3sccn23)nc(NC2CCNCC2)n1 [Example 249, 4-[6-(2,3-dihydro-1,4-benzodioxin-6-yl)imidazo[2,1-b][1,3]thiazol-5-yl]-N-piperidin-4-ylpyrimidin-2-amine]	–	58%
NCCC(=O)Nc1ccccc1-c1nc2sccn2c1-c1ccnc(N[C@@H]2CCCN(S(=O)(=O)c3ccc(Cl)cc3)C2)n1 [Example 138, N~1~-(2-{5-[2-({(3R)-1-[(4-chlorophenyl)sulfonyl]piperidin-3-yl}amino)pyrimidin-4-yl]imidazo[2,1-b][1,3]thiazol-6-yl}phenyl)-beta-alaninamide]	–	82%
CN(C)c1ccc(NC(=O)N2CCC[C@@H](Nc3nccc(-c4c(-c5ccc(F)cc5)nc5occn45)n3)C2)cc1 [Example 24, (3R)-N-[4-(dimethyl-amino)phenyl]-3-({4-[6-(4-fluorophenyl)imidazo[2,1-b][1,3]oxazol-5-yl]pyrimidin-2-yl}amino)piperidine-1-carboxamide]	–	60%
NCCCC(=O)Nc1ccccc1-c1nc2sccn2c1-c1ccnc(N[C@@H]2CCCN(S(=O)(=O)c3ccc(Cl)cc3)C2)n1 [Example 136, 4-amino-N-(2-{5-[2-({(3R)-1-[(4-chlorophenyl)sulfonyl]piperidin-3-yl}amino)pyrimidin-4-yl]imidazo[2,1-b][1,3]thiazol-6-yl}phenyl)butanamide]	< 5.52	–

More lines, now with the values ahead:

pIC50	inhibition at 10 µM	Structure (SMILES)
7.07	–	NS(=O)(=O)Oc1cccc(-c2nc3sccn3c2-c2ccnc(N[C@@H]3CCCN(S(=O)(=O)c4ccc(Cl)cc4)C3)n2)c1 [Example 377, 3-{5-[2-({(3R)-1-{(4-chlorophenyl)sulfonyl]piperidin-3-yl}amino)pyrimidin-4-yl]imidazo[2,1-b][1,3]thiazol-6-yl}phenyl sulfamate]
5.74	–	O=C(COc1ccc(Cl)cc1)N1CCC[C@@H](Nc2nccc(-c3c(-c4ccc(F)cc4)nc4occn34)n2)C1 [Example 29, N-{(3R)-1-[(4-chlorophenoxy)acetyl]piper-idin-3-yl}-4-[6-(4-fluorophenyl)imidazo[2,1-b][1,3]oxazol-5-yl]pyrimidin-2-amine]
6.73	–	O=S(=O)(c1ccc(F)cc1)N1CCC(Nc2nccc(-c3c(-c4ccc5c(c4)OCCO5)nc4sccn34)n2)CC1 [Example 260, 4-[6-(2,3-dihydro-1,4-benzodioxin-6-yl)imidazo[2,1-b][1,3]thiazol-5-yl]-N-{1-[(4-fluorophenyl)sulfonyl]piperidin-4-yl}pyrimidin-2-amine]
6.26	–	CCNC(=O)Nc1cccc(-c2nc3sccn3c2-c2ccnc(N[C@@H]3CCCN(S(=O)(=O)c4ccc(Cl)cc4)C3)n2)c1 [Example 347, 1-(3-{5-[2-({(3R)-1-[(4-chlorophenyl)sulfonyl]piperidin-3-yl}amino)pyrimidin-4-yl]imidazo[2,1-b][1,3]thiazol-6-yl}phenyl)-3-ethyl urea]
7.18	–	CN(C)c1ccc(NC(=O)N2CCC(Nc3nccc(-c4c(-c5ccc(F)cc5)nc5occn45)n3)CC2)cc1 [Example 175, N-[4-(dimethylamino)phenyl]-4-({4-[6-(4-fluorophenyl)imidazo[2,1-b][1,3]oxazol-5-yl]pyrimidin-2-yl}amino)piperidine-1-carboxamide]
6.35	–	Nc1ccccc1-c1nc2sccn2c1-c1ccnc(N[C@@H]2CCCN(S(=O)(=O)c3ccc(Cl)cc3)C2)n1 [Example 132, 4-[6-(2-aminophenyl)imidazo[2,1-b][1,3]thiazol-5-yl]-N-{(3R)-1-[(4-chlorophenyl)sulfonyl]piper-idin-3-yl}pyrimidin-2-amine]
5.92	–	CCCS(=O)(=O)N1CCC[C@@H](Nc2nccc(-c3c(-c4cccc(O)c4)nc4sccn34)n2)C1 [Example 370, 3-[5-(2-{[(3R)-1-(propylsulfonyl)piperidin-3-yl]amino}pyrimidin-4-yl)imidazo[2,1-b][1,3]thiazol-6-yl]phenol]
5.69	–	CCNC(=O)N1CCC(Nc2nccc(-c3c(-c4cccc(OC)c4)nc4sccn34)n2)CC1 [Example 213, N-ethyl-4-({4-[6-(3-methoxyphenyl)imidazo[2,1-b][1,3]thiazol-5-yl]pyrimidin-2-yl}amino)piperidine-1-carboxamide]
6.90	–	O=S(=O)(c1ccc(Cl)cc1)N1CCC(Nc2nccc(-c3c(-c4cccc(O)c4)nc4occn34)n2)CC1 [Example 321, 3-{5-[2-({1-[(4-chlorophenyl)sulfonyl]piperidin-4-yl}amino)pyrimidin-4-yl]imidazo[2,1-b][1,3]oxazol-6-yl}phenol]
6.71	–	O=C(c1ccccc1)N1CCC[C@@H](Nc2nccc(-c3c(-c4ccc(F)cc4)nc4occn34)n2)C1 [Example 26, N-[(3R)-1-benzoylpiperidin-3-yl]-4-[6-(4-fluorophenyl)imidazo[2,1-b][1,3]oxazol-5-yl]pyrimidin-2-amine]
6.33	–	COc1ccc(C(=O)N2CCC(Nc3nccc(-c4c(-c5ccc(F)cc5)nc5occn45)n3)CC2)cc1 [Example 158, 4-[6-(4-fluorophenyl)imidazo[2,1-b][1,3]oxazol-5-yl]-N-[1-(4-methoxybenzoyl)piperidin-4-yl]pyrimidin-2-amine]
